Reference: US20210179686A1, “CELL SORTING SYSTEMS AND METHODS OF USE” (MEMORIAL SLOAN-KETTERING CANCER CENTER, priority 2018, published 2021)

Experiments:
FLAG-RR12EE345L = assay: capture and presentation of secreted FLAG leucine zipper by mutant blocking leucine zippers in C1498 cells; format: cell-based; settings: FIG. 20
Text: A series of mutations were made in the “g” residues of the blocking leucine zipper to reduce heterodimerization affinity between the capture leucine zipper and the linked blocking leucine zipper. The following six mutants were made: 1N mutant: E1R2EE345L (having the amino acid sequence set forth in SEQ ID NO: 98), 1M mutant: RR123E45L (having the amino acid sequence set forth in SEQ ID NO: 99), 2N mutant: EE12345L (having the amino acid sequence set forth in SEQ ID NO: 102), 2M mutant: RR1234E5L (having the amino acid sequence set forth in SEQ ID NO: 103), 3N mutant: EE12R3E45L (having the amino acid sequence set forth in SEQ ID NO: 106), and 3C mutant: RR12345L (having the amino acid sequence set forth in SEQ ID NO: 107).
C1498 cells were co-transduced with the FLAG-RR12EE345L GFP vector and one of the six mutants as part of RR12EE345L linker EE12RR345L BFP vector constructs. […] Thus, mutating the […] leucine zipper at “g” position residues to include repulsive amino acid interactions can reduce the degree of blocking by the linked […]-based mutant leucine zipper.

iCaspase 9 = target: T1, iCaspase 9 (Homo sapiens, UniProt P55211, Q221R); assay: activation of iCaspase 9 suicide gene by chemical inducer of dimerization in sorted dual-transduced T cells; format: cell-based, mouse
T1 construct: […]; expressed in transfected cells
Method: FIG. 5 depicts purification and testing of dual-transduced cells with iCaspase 9 and CD20-CAR. T cells comprising RR12EE345L-FLAG iCaspase 9 (vector 1) and RR12EE345L-linker-EE12RR345L-Thy1.1 CD20-CAR (vector 2) were incubated with EL4-CD19 and EL4-CD20 targets in the presence or absence of chemical inducer of dimerization (CID).
IL-18 secretion was assessed by ELISA. Interferon gamma secretion was assessed by cytometric bead array.

CD20 mimotope = assay: antibody plus complement depletion of double transduced C1498 cells; format: cell-based; settings: RQR-RR12EE345L plus capture leucine zipper, in the presence of complement, FIG. 18
Method: Next, C1498 cells were double transduced with capture leucine zippers as shown in FIG. 18 and a second vector encoding the tandem CD20 mimotope/CD34 leucine zipper tag (RQR-RR12EE345L). Subsequently, the cells were incubated with anti-CD20 antibody Rituximab or irrelevant antibody Cetuximab in the presence of complement.

T1 sequence (P55211 with tags, fused parts or gaps Q221R): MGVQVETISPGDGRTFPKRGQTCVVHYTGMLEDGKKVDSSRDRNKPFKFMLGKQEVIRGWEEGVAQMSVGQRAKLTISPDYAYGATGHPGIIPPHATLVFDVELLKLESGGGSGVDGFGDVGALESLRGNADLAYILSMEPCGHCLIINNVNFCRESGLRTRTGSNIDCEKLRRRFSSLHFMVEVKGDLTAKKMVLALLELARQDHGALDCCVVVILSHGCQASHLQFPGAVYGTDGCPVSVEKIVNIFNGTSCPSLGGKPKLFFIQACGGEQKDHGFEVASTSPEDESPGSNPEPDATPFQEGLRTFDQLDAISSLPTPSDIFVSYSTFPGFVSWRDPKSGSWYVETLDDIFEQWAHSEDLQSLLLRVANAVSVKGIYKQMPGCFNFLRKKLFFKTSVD
Sequence of FLAG-RR12EE345L (as listed by the source): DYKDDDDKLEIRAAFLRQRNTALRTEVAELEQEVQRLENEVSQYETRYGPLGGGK
Sequence of CD20 mimotope (as listed by the source): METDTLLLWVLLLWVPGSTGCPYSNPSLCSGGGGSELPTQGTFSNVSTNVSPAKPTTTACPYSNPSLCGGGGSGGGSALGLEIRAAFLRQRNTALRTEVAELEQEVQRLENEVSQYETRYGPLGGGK

3N mutant: blocking leucine zipper mutant, amino acid sequence SEQ ID NO: 106 (LEIEAAFLRQENTALRTRVAELEQEVQRLENEVSQYETRYGPLGGGK)
presentation of secreted leucine zipper (FLAG-RR12EE345L; C1498 cells co-transduced with FLAG-RR12EE345L GFP vector): enhanced presentation of secreted leucine zipper | FLAG binding (FLAG-RR12EE345L; double transduced and single-transduced capture-zipper-only C1498 cells): increased FLAG binding in double transduced cells (intracellular pairing), but also in single-transduced capture leucine zipper-only cells (extracellular pairing)

CC[C@H](C(=O)N1CCCC[C@H]1C(=O)O[C@H](CCc1ccc(OC)c(OC)c1)c1cccc(OCC(=O)NCC(CNC(=O)COc2cccc([C@@H](CCc3ccc(OC)c(OC)c3)OC(=O)[C@@H]3CCCCN3C(=O)[C@@H](CC)c3cc(OC)c(OC)c(OC)c3)c2)CN(C)C)c1)c1cc(OC)c(OC)c(OC)c1 [chemical inducer of dimerization]
induction of T cell apoptosis (iCaspase 9; T cells with iCaspase 9 on one vector and CD20-CAR on the other, FIG. 5): > 90% | cell death (iCaspase 9; sorted cells with two vectors expressing CD19-CAR, CD20-CAR and iCaspase9, optionally IL-18, FIG. 6): about 90%

Rituximab
depletion of cells (CD20 mimotope): selective depletion of double transduced cells
